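At the GI50, growth is halved. TGI marks complete inhibition of growth.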
Assays:
Assay in all cases: NCI tumour cell line growth inhibition, 384-well format
786-0 renal = system: 786-0 renal
A498 renal = system: A498 renal
A549 NSCLC = system: A549 NSCLC
ACHN renal = system: ACHN renal
BT-549 breast = system: BT-549 breast
CAKI-1 renal = system: CAKI-1 renal
CCRF-CEM leukemia = system: CCRF-CEM leukemia
COLO 205 colon = system: COLO 205 colon
DU-145 prostate = system: DU-145 prostate
EKVX NSCLC = system: EKVX NSCLC
HCT-116 colon = system: HCT-116 colon
HCT-15 colon = system: HCT-15 colon
HL-60(TB) leukemia = system: HL-60(TB) leukemia
HOP-62 NSCLC = system: HOP-62 NSCLC
HOP-92 NSCLC = system: HOP-92 NSCLC
HS 578T breast = system: HS 578T breast
HT29 colon = system: HT29 colon
IGROV1 ovarian = system: IGROV1 ovarian
K-562 leukemia = system: K-562 leukemia
KM12 colon = system: KM12 colon
LOX IMVI melanoma = system: LOX IMVI melanoma
M14 melanoma = system: M14 melanoma
MALME-3M melanoma = system: MALME-3M melanoma
MCF7 breast = system: MCF7 breast
MDA-MB-435 melanoma = system: MDA-MB-435 melanoma
MDA-MB-468 breast = system: MDA-MB-468 breast
MOLT-4 leukemia = system: MOLT-4 leukemia
NCI-H226 lung = system: NCI-H226 lung
NCI-H23 lung = system: NCI-H23 lung
NCI-H322M lung = system: NCI-H322M lung
NCI-H460 NSCLC = system: NCI-H460 NSCLC
NCI-H522 lung = system: NCI-H522 lung
NCI/ADR-RES ovarian = system: NCI/ADR-RES ovarian
OVCAR-3 ovarian = system: OVCAR-3 ovarian
OVCAR-4 ovarian = system: OVCAR-4 ovarian
OVCAR-8 ovarian = system: OVCAR-8 ovarian
PC-3 prostate = system: PC-3 prostate
RPMI-8226 leukemia = system: RPMI-8226 leukemia
RXF 393 renal = system: RXF 393 renal
SF-268 CNS = system: SF-268 CNS
SF-295 CNS = system: SF-295 CNS
SF-539 CNS = system: SF-539 CNS
SK-MEL-2 melanoma = system: SK-MEL-2 melanoma
SK-MEL-28 melanoma = system: SK-MEL-28 melanoma
SK-MEL-5 melanoma = system: SK-MEL-5 melanoma
SK-OV-3 ovarian = system: SK-OV-3 ovarian
SN12C renal = system: SN12C renal
SNB-19 CNS = system: SNB-19 CNS
SNB-75 CNS = system: SNB-75 CNS
SW-620 colon = system: SW-620 colon
TK-10 renal = system: TK-10 renal
U251 glioblastoma = system: U251 glioblastoma
UACC-257 melanoma = system: UACC-257 melanoma
UACC-62 melanoma = system: UACC-62 melanoma

`CCCOC(=O)c1nc(N(CC2CCCCC2)C(=O)NC)sc1/N=C/c1ccccc1` gave a GI50 ([…]-0 renal) of 6.22 µM, a TGI (786-0 renal) of 18.7 µM and a GI50 (A498 renal) of 4.1 µM. The TGI (A498 renal) was 14.7 µM, the GI50 (A549 NSCLC) was 9.71 µM and the TGI (A549 NSCLC) was 22 µM. The GI50 (ACHN renal) was 9.87 µM, the TGI (ACHN renal) was 21.9 µM and the GI50 (BT-549 breast) was 4.02 µM. The TGI (BT-549 breast) was 12.4 µM, the GI50 (CAKI-1 renal) was 5.18 µM and the TGI (CAKI-1 renal) was 18.1 µM. It also gave a GI50 (CCRF-CEM leukemia) of 2.03 µM, a TGI (CCRF-CEM leukemia) of 3.76 µM and a GI50 (COLO 205 colon) of 4.56 µM. It also gave a TGI (COLO 205 colon) of 16.1 µM, a GI50 (DU-145 prostate) of 12.3 µM and a TGI (DU-145 prostate) of 27.5 µM. For the same compound, the GI50 (EKVX NSCLC) was 8.12 µM, the TGI (EKVX NSCLC) was 20.7 µM and the GI50 (HCT-116 colon) was 3.2 µM. It also gave a TGI (HCT-116 colon) of 9.48 µM, a GI50 (HCT-15 colon) of 2.83 µM and a TGI (HCT-15 colon) of 8.63 µM. It also gave a GI50 (HL-60(TB) leukemia) of 1.73 µM, a TGI (HL-60(TB) leukemia) of 3.11 µM and a GI50 (HOP-62 NSCLC) of 2.45 µM. The TGI (HOP-62 NSCLC) was 7.26 µM, the GI50 (HOP-92 NSCLC) was 4.36 µM and the TGI (HOP-92 NSCLC) was 14.6 µM. The GI50 (HS 578T breast) was 2.22 µM, the TGI (HS 578T breast) was 5.66 µM and the GI50 (HT29 colon) was 2.58 µM. The TGI (HT29 colon) was 6.98 µM, the GI50 (IGROV1 ovarian) was 3.71 µM and the TGI (IGROV1 ovarian) was 14.4 µM. It also gave a GI50 (K-562 leukemia) of 3.37 µM, a TGI (K-562 leukemia) of 10.7 µM and a GI50 (KM12 colon) of 3.26 µM. The TGI (KM12 colon) was 11.8 µM, the GI50 (LOX IMVI melanoma) was 3.83 µM and the TGI (LOX IMVI melanoma) was 11.3 µM. For the same compound, the GI50 (M14 melanoma) was 3.46 µM, the TGI (M14 melanoma) was 10.9 µM and the GI50 (MALME-3M melanoma) was 3.51 µM. For the same compound, the TGI (MALME-3M melanoma) was 9.53 µM, the GI50 (MCF7 breast) was 2.66 µM and the TGI (MCF7 breast) was 7.98 µM. It also gave a GI50 (MDA-MB-435 melanoma) of 1.79 µM, a TGI (MDA-MB-435 melanoma) of 4.03 µM and a GI50 (MDA-MB-468 breast) of 2.13 µM. The TGI (MDA-MB-468 breast) was 4.05 µM, the GI50 (MOLT-4 leukemia) was 1.76 µM and the TGI (MOLT-4 leukemia) was 3.2 µM. It also gave a GI50 (NCI-H226 lung) of 5.1 µM, a TGI (NCI-H226 lung) of 18.1 µM and a GI50 (NCI-H23 lung) of 3.39 µM. The TGI (NCI-H23 lung) was 11.4 µM, the GI50 (NCI-H322M lung) was 31.3 µM and the TGI (NCI-H322M lung) was over 100 µM. It also gave a GI50 (NCI-H460 NSCLC) of 2.56 µM, a TGI (NCI-H460 NSCLC) of 6.26 µM and a GI50 (NCI-H522 lung) of 1.8 µM. The TGI (NCI-H522 lung) was 5.05 µM, the GI50 (NCI/ADR-RES ovarian) was 2.51 µM and the TGI (NCI/ADR-RES ovarian) was 8.09 µM. For the same compound, the GI50 (OVCAR-3 ovarian) was 2.01 µM, the TGI (OVCAR-3 ovarian) was 4.27 µM and the GI50 (OVCAR-4 ovarian) was 2.74 µM. It also gave a TGI (OVCAR-4 ovarian) of 12.5 µM, a GI50 (OVCAR-8 ovarian) of 10.7 µM and a TGI (OVCAR-8 ovarian) of 23.1 µM. The GI50 (PC-3 prostate) was 3.58 µM, the TGI (PC-3 prostate) was 12.8 µM and the GI50 (RPMI-8226 leukemia) was 1.61 µM. The TGI (RPMI-8226 leukemia) was 3.22 µM, the GI50 (RXF 393 renal) was 2.65 µM and the TGI (RXF 393 renal) was 5.99 µM. For the same compound, the GI50 (SF-268 CNS) was 5.35 µM, the TGI (SF-268 CNS) was 15.5 µM and the GI50 (SF-295 CNS) was 2.16 µM. It also gave a TGI (SF-295 CNS) of 5.51 µM, a GI50 (SF-539 CNS) of 4.85 µM and a TGI (SF-539 CNS) of 16.6 µM. It also gave a GI50 (SK-MEL-2 melanoma) of 2.34 µM, a TGI (SK-MEL-2 melanoma) of 4.27 µM and a GI50 (SK-MEL-28 melanoma) of 5.74 µM. It also gave a TGI (SK-MEL-28 melanoma) of 16.9 µM, a GI50 (SK-MEL-5 melanoma) of 2.43 µM and a TGI (SK-MEL-5 melanoma) of 11.3 µM. The GI50 (SK-OV-3 ovarian) was 3.49 µM, the TGI (SK-OV-3 ovarian) was 14.7 µM and the GI50 (SN12C renal) was 6.86 µM. The TGI (SN12C renal) was 19.6 µM, the GI50 (SNB-19 CNS) was 5.73 µM and the TGI (SNB-19 CNS) was 17.4 µM. For the same compound, the GI50 (SNB-75 CNS) was 2.55 µM, the TGI (SNB-75 CNS) was 7.92 µM and the GI50 (SW-620 colon) was 3.5 µM. The TGI (SW-620 colon) was 13.5 µM, the GI50 (TK-10 renal) was 8.53 µM and the TGI (TK-10 renal) was 21.8 µM. It also gave a GI50 (U251 glioblastoma) of 7.26 µM, a TGI (U251 glioblastoma) of 21.2 µM and a GI50 (UACC-257 melanoma) of 7.33 µM. For the same compound, the TGI (UACC-257 melanoma) was 29.1 µM, the GI50 (UACC-62 melanoma) was 3.48 µM and the TGI (UACC-62 melanoma) was 14 µM.

Source: PubChem BioAssay (NCI)
